Biological target: T1, human cathepsin L (Homo sapiens, UniProt P07711)
T1 construct: gene CTSL
Assay: fluorogenic Cbz-Phe-Arg-AMC hydrolysis with inner-filter correction, confirmed by HPLC-based assay
Assay type: biochemical

T1 sequence (P07711 114-288): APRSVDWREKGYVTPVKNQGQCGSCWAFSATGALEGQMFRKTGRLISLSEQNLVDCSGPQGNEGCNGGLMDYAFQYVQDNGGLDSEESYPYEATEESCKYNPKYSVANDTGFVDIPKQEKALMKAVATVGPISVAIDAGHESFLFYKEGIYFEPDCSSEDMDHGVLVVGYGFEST
T1 sequence (P07711 292-333): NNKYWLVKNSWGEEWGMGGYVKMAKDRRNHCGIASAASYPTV

`CC(C)=CCC/C(C)=C/CC/C(C)=C/CN1C(=O)c2cccc(O)c2Nc2c(O)cc(O)cc21` [compound 1, diazepinomicin] gave an IC50 of 72.4 ± 5.3 µM.
